PMC9758846, “Dinuclear and mononuclear metal(II) polypyridyl complexes against drug-sensitive and drug-resistant Plasmodium falciparum and their mode of action” (Malaria Journal, 2022)
Several values for one entry are separate records, joined by “and”; a condition that tells them apart may be missing. Identical values can stand only once.

Key:
[1] = tested on: Pf5202; test: Intracellular ROS level using DCFH-DA; assay type: cell-based, Plasmodium falciparum
Experimental: (§1) After incubation, packed cells were washed with phosphate buffer saline (PBS) solution. […] The data was expressed as fold change between amount of ROS produced by treated P. falciparum against untreated P. falciparum. Normalization was done with the percentage of parasite viability obtained at each condition. Hydrogen peroxide was used as positive control.

[2] = tested on: Pf3D7; test: Intracellular ROS level using DCFH-DA; assay type: cell-based, Plasmodium falciparum
Experimental: as §1

[3] = tested on: Plasmodium falciparum 3D7 (Pf3D7); test: In vitro anti-malarial activity using SYBR Green I nucleic acid dye; assay type: cell-based; details: 72 h incubation; read-out: IC50 of Pf3D7
Experimental: (§2) The drug-sensitive strain of P. falciparum 3D7 (Pf3D7) was obtained from the Department of Science, Monash University, Malaysia and cultured as previously described. The artemisinin-resistant strain of P. falciparum IPC5202 (Pf5202) was obtained from BEI Resources and cultured as mentioned in the product sheet. Both strains were maintained in sealed flask at 37 °C in a humidified atmosphere of 5% O2, 5% CO2 and 90% N2. All buffer stock solutions for biological assays were autoclaved at 121 °C for 15 min.
(§3) Previously reported anti-malarial assay was used with slight modification using 1% parasitaemia (ring-stage) and 5% haematocrit treated with test compounds at increasing concentration and incubated for 72 h at 37 °C [21–23]. After the incubation, the assay was terminated by freeze/thaw cycle (− 80 °C overnight before thawing for 2 h) before the addition of lysis buffer containing SYBR Green I dye into each well and mixed thoroughly using the belly dancer for 30 min in the dark. Chloroquine diphosphate salt and artemisinin were used as standard drugs. The fluorescence signal was quantified at 485 nm excitation wavelength and 528 nm emission wavelength. IC50 values of each test compound was determined from a dose response curve by non-linear regression analysis.

[4] = tested on: Plasmodium falciparum IPC5202 (Pf5202); test: as above; assay type: cell-based; details: 72 h incubation; read-out: IC50 of Pf5202
Experimental: as §2, §3

[5] = tested on: Pf5202; test: JC-1 mitochondrial membrane potential study; assay type: cell-based, Plasmodium falciparum; details: JC-1 red/green fluorescence ratio
Experimental: (§4) Mitochondrial membrane potential was investigated using a BD™ MitoScreen Flow Cytometry Mitochondrial Membrane Potential Detection JC-1 kit. In brief, parasitized red blood cells were treated with test compounds at desired concentrations for 12 and 48 h at 37 °C. After incubation, packed cells were stained as per manufacturer’s instructions. Dissipation in Δψm was measured by calculating the ratio between the red and green fluorescence.

[6] = tested on: Pf3D7; test: JC-1 mitochondrial membrane potential study; assay type: cell-based, Plasmodium falciparum; details: JC-1 red/green fluorescence ratio
Experimental: as §4

[7] = tested on: B+ blood red blood cells (RBC); test: In vitro haemolytic assay; assay type: cell-based, human; details: 72 h, B+ blood
Experimental: Fresh B+ blood was washed with RPMI1640 medium containing of 30 µg/mL gentamicin (Gibco) and centrifuged at 1000 xg for 10 min three times. The percentage of haemolysis was determined spectroscopically using 5% haematocrit containing test compound at increasing concentration and incubated for 72 h at 37 °C [19, 20]. Untreated blood acted as negative control while blood treated with sterile distilled water acted as positive control (for 100% haemolysis).

[8] = tested on: Pf3D7; test: Nuclear morphology study by Hoechst staining; assay type: cell-based, Plasmodium falciparum; details: Pf3D7-infected RBC; 72 h; 0.2-25 µM
Experimental: Detections of haemolytic and apoptotic morphological features were examined on Giemsa-stained thin blood smear. The parasite was then visualised with oil immersion (100 × magnification) using upright brightfield microscope. Another thin blood smear was prepared, fixed with methanol, stained in 10 µg/mL of Hoechst 33,258 stain, and kept in the dark for 30 min at room temperature. A cover slip was applied, and the nuclear morphological examination was then visualized with at 100 × magnification with oil by fluorescence microscope using DAPI filter.
The morphological features of apoptosis of P. falciparum can be indicated by chromosome condensation and fragmentation of the P. falciparum nuclei in the non-nuclear RBC cells. The condensed chromosomes would be stained bright blue. The pRBC cells were treated with (1) and (3) respectively for 72 h, and the resultant pRBC were visualized and photographed at 100 × magnification with oil immersion. Typical images were enlarged to look at single cells and are depicted in Fig. 9 for Pf3D7 and Fig. 10 for Pf5202. […] The nuclei of P. falciparum trophozoites in pRBC were observed under brightfield microscope as dots, and they were stained brighter blue which increased in fluorescence intensity with increasing concentration of copper(II) complexes of (1) and (3) from 0.2, 1, 5 to 25 µM compared to the untreated pRBC.

[9] = PNDA assay of •OH radicals from reaction with H2O2; details: 30 µM compound with excess H2O2
Experimental: A previously reported spectrometric assay using PNDA was used to quantify the amount of reactive oxygen species (ROS), viz. •OH radicals, produced by the reaction of metal(II) complexes with hydrogen peroxide in borate buffer at pH 7.5 [24–26]. The percentage of PNDA bleaching and the concentration of •OH produced were determined.

Molecule: O.O=[N+]([O-])[O-].O=[N+]([O-])[O-].[Cu+2].c1cnc2c(c1)ccc1cccnc12.c1cnc2c(c1)ccc1cccnc12 [Complex 1, [Cu(phen)2](NO3)2·H2O]
- fold change in ROS ([1]; 24 h, 0.2 µM): 1.04 ± 0.03 fold
- fold change in ROS ([1]; 24 h, 1.0 µM): 0.86 ± 0.04 fold
- fold change in ROS ([1]; 24 h, 5.0 µM): 0.59 ± 0.02 fold
- fold change in ROS ([1]; 24 h, 25.0 µM): 0.04 ± 0.03 fold
- fold change in ROS ([1]; 48 h, 0.2 µM): 0.32 ± 0.02 fold
- fold change in ROS ([1]; 48 h, 1.0 µM): 0.33 ± 0.05 fold
- fold change in ROS ([1]; 48 h, 5.0 µM): 0.72 ± 0.12 fold
- fold change in ROS ([1]; 48 h, 25.0 µM): 0.52 ± 0.26 fold
- fold change in ROS ([1]; 72 h, 0.2 µM): 1.09 ± 0.07 fold
- fold change in ROS ([1]; 72 h, 1.0 µM): 1.33 ± 0.41 fold
- fold change in ROS ([1]; 72 h, 5.0 µM): 1.69 ± 0.22 fold
- fold change in ROS ([2]; 24 h, 0.2 µM): 1.44 ± 0.10 fold
- fold change in ROS ([2]; 24 h, 1.0 µM): 1.54 ± 0.26 fold
- fold change in ROS ([2]; 24 h, 5.0 µM): 2.28 ± 0.25 fold
- fold change in ROS ([2]; 24 h, 25.0 µM): 7.59 ± 0.46 fold
- fold change in ROS ([2]; 48 h, 0.2 µM): 2.45 ± 0.41 fold
- fold change in ROS ([2]; 48 h, 1.0 µM): 3.20 ± 0.19 fold
- fold change in ROS ([2]; 48 h, 5.0 µM): 4.54 ± 0.52 fold
- fold change in ROS ([2]; 48 h, 25.0 µM): 6.83 ± 0.83 fold
- fold change in ROS ([2]; 72 h, 0.2 µM): 0.00 ± 0.10 fold
- IC50 [3]: 3510 ± 470 nM
- IC50 [4]: 17900 ± 2730 nM
- Mitochondrial membrane potential (Δψm) ([5]; 12 h, 1 µM): 18.9 ± 2.8
- Mitochondrial membrane potential (Δψm) ([5]; 12 h, 5 µM): 17.5 ± 3.5
- Mitochondrial membrane potential (Δψm) ([5]; 12 h, 25 µM): 1.1 ± 0.6
- Mitochondrial membrane potential (Δψm) ([5]; 48 h, 1 µM): 10.4 ± 3.1
- Mitochondrial membrane potential (Δψm) ([5]; 48 h, 5 µM): 6.0 ± 1.8
- Mitochondrial membrane potential (Δψm) ([5]; 48 h, 25 µM): 1.2 ± 0.1
- Mitochondrial membrane potential (Δψm) ([6]; 12 h, 1 µM): 17.2 ± 12.8
- Mitochondrial membrane potential (Δψm) ([6]; 12 h, 5 µM): 29.7 ± 12.1
- Mitochondrial membrane potential (Δψm) ([6]; 12 h, 25 µM): 1.9 ± 1.1
- Mitochondrial membrane potential (Δψm) ([6]; 48 h, 1 µM): 41.1 ± 5.1
- Mitochondrial membrane potential (Δψm) ([6]; 48 h, 5 µM): 43.6 ± 15.0
- Mitochondrial membrane potential (Δψm) ([6]; 48 h, 25 µM): 0.5 ± 0.3
- Percentage of haemolysis (haemolytic index, HI) ([7]; 1 µM): 4%
- Percentage of haemolysis (haemolytic index, HI) ([7]; 5 µM): 80%
- Percentage of haemolysis (haemolytic index, HI) ([7]; 25 µM): 43%
- Type of cell death by nuclear morphology (Hoechst) [8]: underwent apoptosis
- Concentration of •OH radical ([9]; 2 h): 32.20 ± 2.93 µM
- Concentration of •OH radical ([9]; 4 h): 34.36 ± 2.62 µM
- Concentration of •OH radical ([9]; 24 h): 35.43 ± 1.22 µM
- Concentration of •OH radical ([9]; 48 h): 32.19 ± 0.52 µM
- Concentration of •OH radical ([9]; 72 h): 28.96 ± 0.38 µM

Molecule: [Cu(phen)(NO3)(H2O)-4,4′-bipy-Cu(phen)(NO3)(H2O)](NO3)2 [Complex 3]
- fold change in ROS ([1]; 24 h, 0.2 µM): 0.04 ± 0.33 fold
- fold change in ROS ([1]; 48 h, 0.2 µM): 0.52 ± 0.60 fold
- fold change in ROS ([1]; 48 h, 1.0 µM): 0.66 ± 0.50 fold
- fold change in ROS ([1]; 48 h, 5.0 µM): 2.53 ± 0.85 fold
- fold change in ROS ([1]; 48 h, 25.0 µM): 3.39 ± 0.66 fold
- fold change in ROS ([1]; 72 h, 5.0 µM): 8.43 ± 0.60 fold
- fold change in ROS ([2]; 24 h, 0.2 µM): 1.76 ± 0.47 fold
- fold change in ROS ([2]; 24 h, 1.0 µM): 1.13 ± 0.56 fold
- fold change in ROS ([2]; 24 h, 5.0 µM): 2.30 ± 0.86 fold
- fold change in ROS ([2]; 24 h, 25.0 µM): 5.36 ± 0.30 fold
- fold change in ROS ([2]; 48 h, 0.2 µM): 1.20 ± 0.64 fold
- fold change in ROS ([2]; 48 h, 1.0 µM): 1.28 ± 0.31 fold
- fold change in ROS ([2]; 48 h, 5.0 µM): 3.80 ± 1.18 fold
- fold change in ROS ([2]; 48 h, 25.0 µM): 5.46 ± 0.25 fold
- fold change in ROS ([2]; 72 h, 0.2 µM): 1.49 ± 0.10 fold
- fold change in ROS ([2]; 72 h, 1.0 µM): 1.77 ± 0.24 fold
- fold change in ROS ([2]; 72 h, 5.0 µM): 1.68 ± 0.41 fold
- fold change in ROS ([2]; 72 h, 25.0 µM): 2.74 ± 0.24 fold
- IC50 [3]: 900 ± 120 nM
- IC50 [4]: 2200 nM and 2210 nM
- Mitochondrial membrane potential (Δψm) ([5]; 12 h, 1 µM): 17.5 ± 2.2
- Mitochondrial membrane potential (Δψm) ([5]; 12 h, 5 µM): 16.6 ± 4.6
- Mitochondrial membrane potential (Δψm) ([5]; 12 h, 25 µM): 0.5 ± 0.1
- Mitochondrial membrane potential (Δψm) ([5]; 48 h, 1 µM): 19.2 ± 8.4
- Mitochondrial membrane potential (Δψm) ([5]; 48 h, 5 µM): 0.6 ± 0.1
- Mitochondrial membrane potential (Δψm) ([5]; 48 h, 25 µM): 0.1 ± 0.01
- Mitochondrial membrane potential (Δψm) ([6]; 12 h, 1 µM): 24.2 ± 1.6
- Mitochondrial membrane potential (Δψm) ([6]; 12 h, 5 µM): 49.3 ± 23.8
- Mitochondrial membrane potential (Δψm) ([6]; 12 h, 25 µM): 0.4 ± 0.2
- Mitochondrial membrane potential (Δψm) ([6]; 48 h, 1 µM): 45.0 ± 26.4
- Mitochondrial membrane potential (Δψm) ([6]; 48 h, 5 µM): 4.7 ± 2.6
- Mitochondrial membrane potential (Δψm) ([6]; 48 h, 25 µM): 0.1 ± 0.04
- Percentage of haemolysis (haemolytic index, HI) ([7]; 1 µM): 35%
- Percentage of haemolysis (haemolytic index, HI) ([7]; 5 µM): 96%
- Percentage of haemolysis (haemolytic index, HI) ([7]; 25 µM): 36%
- Type of cell death by nuclear morphology (Hoechst) [8]: underwent apoptosis
- Concentration of •OH radical ([9]; 2 h): 21.13 ± 0.41 µM
- Concentration of •OH radical ([9]; 4 h): 22.16 ± 0.36 µM
- Concentration of •OH radical ([9]; 24 h): 23.51 ± 1.09 µM
- Concentration of •OH radical ([9]; 48 h): 21.29 ± 1.67 µM
- Concentration of •OH radical ([9]; 72 h): 18.89 ± 1.45 µM
